Source: patent publication US12102648B2, “Orally-bioavailable nucleoside analogs” (priority 2021, dated 2024)

Experiment: in vitro
Assay type: in vitro ADME
Conditions: human, Caco-2
In short: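 Permeability measured in both directions across 19-day Caco-2 layers with TEER above 600 […], incubated at 37° C without shaking; donor and receiver sampled at 10 and 90 min for LC/MS/MS. Derived values: Papp (cm/s), efflux ratio, recovery.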

| SMILES | Papp A→B at 90 min [nm/s] | Papp B→A at 90 min [nm/s] | efflux ratio at 90 min |
| --- | --- | --- | --- |
| N#C[C@@]1(c2ccc3c(N)ncnn23)O[C@H](COC(=O)CC2CCOCC2)[C@@H](O)[C@H]1O [Compound 257, ((2R,3S,4R,5R)-5-(4-aminopyrrolo[2,1-f][1,2,4]triazin-7-yl)-5-cyano-3,4-dihydroxytetrahydrofuran-2-yl)methyl 2-(tetrahydro-2H-pyran-4-yl)acetate] | 0.3 | 14 | 46 |
| N#C[C@@]1(c2ccc3c(N)ncnn23)O[C@H](COC(=O)CC2CC2)[C@@H](O)[C@H]1O [Compound 258, [(2R,3S,4R,5R)-5-{4-aminopyrrolo[2,1-f][1,2,4]triazin-7-yl}-5-cyano-3,4-dihydroxyoxolan-2-yl]methyl 2-cyclopropylacetate] | 0.9 | 3 | 3.5 |
| N#C[C@@]1(c2ccc3c(N)ncnn23)O[C@H](COC(=O)CC2CCCC2)[C@@H](O)[C@H]1O [Compound 259, ((2R,3S,4R,5R)-5-(4-aminopyrrolo[2,1-f][1,2,4]triazin-7-yl)-5-cyano-3,4-dihydroxytetrahydrofuran-2-yl)methyl 2-cyclopentylacetate] | 20 | 6 | 0.3 |
| N#C[C@@]1(c2ccc3c(N)ncnn23)O[C@H](COC(=O)CC2CCCCCC2)[C@@H](O)[C@H]1O [Compound 261, ((2R,3S,4R,5R)-5-(4-aminopyrrolo[2,1-f][1,2,4]triazin-7-yl)-5-cyano-3,4-dihydroxytetrahydrofuran-2-yl)methyl 2-cycloheptylacetate] | 7.9 | 11 | 1.4 |
| N#C[C@@]1(c2ccc3c(N)ncnn23)O[C@H](COC(=O)CC2CCC(F)(F)CC2)[C@@H](O)[C@H]1O [Compound 262, ((2R,3S,4R,5R)-5-(4-aminopyrrolo[2,1-f][1,2,4]triazin-7-yl)-5-cyano-3,4-dihydroxytetrahydrofuran-2-yl)methyl 2-(4,4-difluorocyclohexyl)acetate] | 9.1 | 44 | 4.8 |
| N#C[C@@]1(c2ccc3c(N)ncnn23)O[C@H](COC(=O)CC23CC4CC(CC(C4)C2)C3)[C@@H](O)[C@H]1O [Compound 263, ((2R,3S,4R,5R)-5-(4-aminopyrrolo[2,1-f][1,2,4]triazin-7-yl)-5-cyano-3,4-dihydroxytetrahydrofuran-2-yl)methyl 2-((3R,5R,7R)-adamantan-1-yl)acetate] | 130 | 190 | 1.5 |
| CCCCC(=O)Nc1ncnn2c([C@]3(C#N)O[C@H](CO)[C@@H](O)[C@H]3O)ccc12 [Compound 264, N-(7-((2R,3R,4S,5R)-2-cyano-3,4-dihydroxy-5-(hydroxymethyl)tetrahydrofuran-2-yl)pyrrolo[2,1-f][1,2,4]triazin-4-yl)pentanamide] | 0.3 | 5.3 | 20 |
| N#C[C@@]1(c2ccc3c(N)ncnn23)O[C@H](COC(=O)CC2CCC2)[C@@H](O)[C@H]1O [Compound 265, ((2R,3S,4R,5R)-5-(4-aminopyrrolo[2,1-f][1,2,4]triazin-7-yl)-5-cyano-3,4-dihydroxytetrahydrofuran-2-yl)methyl 2-cyclobutylacetate] | 2.9 | 3.6 | 1.2 |
| N#C[C@@]1(c2ccc3c(N)ncnn23)O[C@H](COC(=O)C[C@H]2CC[C@H](N)CC2)[C@@H](O)[C@H]1O [Compound 266, ((2R,3S,4R,5R)-5-(4-aminopyrrolo[2,1-f][1,2,4]triazin-7-yl)-5-cyano-3,4-dihydroxytetrahydrofuran-2-yl)methyl 2-((1r,4R)-4-aminocyclohexyl)acetate] | 1.9 | 3.8 | 2 |
| N#C[C@@]1(c2ccc3c(N)ncnn23)O[C@H](COC(=O)CC2CCNCC2)[C@@H](O)[C@H]1O [Compound 267] | 4.2 | 2.7 | 0.65 |
| CS(=O)(=O)N1CCC(CC(=O)OC[C@H]2O[C@@](C#N)(c3ccc4c(N)ncnn34)[C@H](O)[C@@H]2O)CC1 [Compound 268, ((2R,3S,4R,5R)-5-(4-aminopyrrolo[2,1-f][1,2,4]triazin-7-yl)-5-cyano-3,4-dihydroxytetrahydrofuran-2-yl)methyl 2-(1-(methylsulfonyl)piperidin-4-yl)acetate] | 0.4 | 18 | 45 |
| CC(C)(C(=O)OC[C@H]1O[C@@](C#N)(c2ccc3c(N)ncnn23)[C@H](O)[C@@H]1O)C1CCCCC1 [Compound 269, ((2R,3S,4R,5R)-5-(4-aminopyrrolo[2,1-f][1,2,4]triazin-7-yl)-5-cyano-3,4-dihydroxytetrahydrofuran-2-yl)methyl 2-cyclohexyl-2-methylpropanoate] | 150 | 200 | 1.3 |
| N#C[C@@]1(c2ccc3c(N)ncnn23)O[C@H](COC(=O)CC2CCC(C(F)(F)F)CC2)[C@@H](O)[C@H]1O (stereo partly drawn) [Compound 270, ((2R,3S,4R,5R)-5-(4-aminopyrrolo[2,1-f][1,2,4]triazin-7-yl)-5-cyano-3,4-dihydroxytetrahydrofuran-2-yl)methyl 2-(4-(trifluoromethyl)cyclohexyl)acetate] | 19 | 69 | 3.7 |
| N#C[C@@]1(c2ccc3c(N)ncnn23)O[C@H](COC(=O)CC2CCC(C(F)(F)F)CC2)[C@@H](OC(=O)CC2CCC(C(F)(F)F)CC2)[C@H]1O (stereo partly drawn) [Compound 271, (2R,3S,4R,5R)-5-(4-aminopyrrolo[2,1-f][1,2,4]triazin-7-yl)-5-cyano-4-hydroxy-2-((2-(4-(trifluoromethyl)cyclohexyl)acetoxy)methyl)tetrahydrofuran-3-yl 2-(4-(trifluoromethyl)cyclohexyl)acetate] | 0.6 | 5.2 | 8.7 |
| CC1(C)CCC(CC(=O)OC[C@H]2O[C@@](C#N)(c3ccc4c(N)ncnn34)[C@H](O)[C@@H]2O)CC1 [Compound 272, ((2R,3S,4R,5R)-5-(4-aminopyrrolo[2,1-f][1,2,4]triazin-7-yl)-5-cyano-3,4-dihydroxytetrahydrofuran-2-yl)methyl 2-(4,4-dimethylcyclohexyl)acetate] | 12 | 6.4 | 0.52 |
| CC1(CC(=O)OC[C@H]2O[C@@](C#N)(c3ccc4c(N)ncnn34)[C@H](O)[C@@H]2O)CCCCC1 [Compound 273, ((2R,3S,4R,5R)-5-(4-aminopyrrolo[2,1-f][1,2,4]triazin-7-yl)-5-cyano-3,4-dihydroxytetrahydrofuran-2-yl)methyl 2-(1-methylcyclohexyl)acetate] | 37 | 32 | 0.85 |
| N#C[C@@]1(c2ccc3c(N)ncnn23)O[C@H](COC(=O)CC2(c3ccccc3)CCOCC2)[C@@H](O)[C@H]1O [Compound 274, ((2R,3S,4R,5R)-5-(4-aminopyrrolo[2,1-f][1,2,4]triazin-7-yl)-5-cyano-3,4-dihydroxytetrahydrofuran-2-yl)methyl 2-(4-phenyltetrahydro-2H-pyran-4-yl)acetate] | 8.5 | 120 | 14 |
| C[C@@H](C(=O)OC[C@H]1O[C@@](C#N)(c2ccc3c(N)ncnn23)[C@H](O)[C@@H]1O)C1CCCCC1 [Compound 275, ((2R,3S,4R,5R)-5-(4-aminopyrrolo[2,1-f][1,2,4]triazin-7-yl)-5-cyano-3,4-dihydroxytetrahydrofuran-2-yl)methyl (R)-2-cyclohexylpropanoate] | 110 | 160 | 1.6 |
| CCCCC(=O)Nc1ncnn2c([C@]3(C#N)O[C@H](COC(=O)C(C)C)[C@@H](O)[C@H]3O)ccc12 [Compound 276, ((2R,3S,4R,5R)-5-cyano-3,4-dihydroxy-5-(4-pentanamidopyrrolo[2,1-f][1,2,4]triazin-7-yl)tetrahydrofuran-2-yl)methyl isobutyrate] | 3.6 | 29 | 8 |
| C[C@H]1CC[C@H](CC(=O)OC[C@H]2O[C@@](C#N)(c3ccc4c(N)ncnn34)[C@H](O)[C@@H]2O)CC1 [Compound 278, ((2R,3S,4R,5R)-5-(4-aminopyrrolo[2,1-f][1,2,4]triazin-7-yl)-5-cyano-3,4-dihydroxytetrahydrofuran-2-yl)methyl 2-((1r,4R)-4-methylcyclohexyl)acetate] | 22 | 49 | 2.2 |
| N#C[C@@]1(c2ccc3c(N)ncnn23)O[C@H](COC(=O)CC2CCC3(CCCC3)CC2)[C@@H](O)[C@H]1O [Compound 279, ((2R,3S,4R,5R)-5-(4-aminopyrrolo[2,1-f][1,2,4]triazin-7-yl)-5-cyano-3,4-dihydroxytetrahydrofuran-2-yl)methyl 2-(spiro[4.5]decan-8-yl)acetate] | 14 | 9 | 0.64 |
| N#C[C@@]1(c2ccc3c(N)ncnn23)O[C@H](COC(=O)CC2CCS(=O)(=O)CC2)[C@@H](O)[C@H]1O [Compound 280, ((2R,3S,4R,5R)-5-(4-aminopyrrolo[2,1-f][1,2,4]triazin-7-yl)-5-cyano-3,4-dihydroxytetrahydrofuran-2-yl)methyl 2-(1,1-dioxidotetrahydro-2H-thiopyran-4-yl)acetate] | 3.8 | 9.1 | 2.4 |

Same assay, conditions: human; Caco-2 monolayer, apical to basolateral, 90-minute incubation; read-out: Papp, A-B

| SMILES | Papp A→B at 90 min [nm/s] |
| --- | --- |
| CCCCC(=O)Nc1ncnn2c([C@]3(C#N)O[C@H](COC(=O)Cc4ccccc4)[C@@H](O)[C@H]3O)ccc12 [Compound 277, ((2R,3S,4R,5R)-5-cyano-3,4-dihydroxy-5-(4-pentanamidopyrrolo[2,1-f][1,2,4]triazin-7-yl)tetrahydrofuran-2-yl)methyl 2-phenylacetate] | 4.7 |

Same assay, conditions: human; Caco-2 monolayer, basolateral to apical, 90-minute incubation; read-out: Papp, B-A

| SMILES | Papp B→A at 90 min [nm/s] |
| --- | --- |
| CCCCC(=O)Nc1ncnn2c([C@]3(C#N)O[C@H](COC(=O)Cc4ccccc4)[C@@H](O)[C@H]3O)ccc12 [Compound 277, ((2R,3S,4R,5R)-5-cyano-3,4-dihydroxy-5-(4-pentanamidopyrrolo[2,1-f][1,2,4]triazin-7-yl)tetrahydrofuran-2-yl)methyl 2-phenylacetate] | 54 |

Same assay, conditions: human; Caco-2 monolayer; ER>2 indicates potential efflux transporter substrate; read-out: ER (efflux ratio)

| SMILES | efflux ratio at 90 min |
| --- | --- |
| CCCCC(=O)Nc1ncnn2c([C@]3(C#N)O[C@H](COC(=O)Cc4ccccc4)[C@@H](O)[C@H]3O)ccc12 [Compound 277, ((2R,3S,4R,5R)-5-cyano-3,4-dihydroxy-5-(4-pentanamidopyrrolo[2,1-f][1,2,4]triazin-7-yl)tetrahydrofuran-2-yl)methyl 2-phenylacetate] | 12 |
